Data on 28 molecules can be found in US8349880B2, “Bicyclic compounds for the reduction of beta-amyloid production” (Bristol-Myers Squibb Company, priority 2009, dated 2013).

This experiment deals with Aβ1-42 production. Briefly: Cellular assay for inhibition of Aβ1-42 production (H4 APP751 SWE clone 8.20). As to conditions: H4 APP751 SWE clone 8.20 cells, 19 h incubation. The format is cell-based. On the procedure:
Cellular assays for inhibition of Aβ1-40 and Aβ1-42 production
H4 cells stably transfected with APP751 containing the Swedish mutation (H4 APP751 SWE clone 8.20, developed at BMS) were maintained in log phase through twice weekly passage at a 1:20 split. For IC50 determinations, 30 μl cells (1.5×10^4 cells/well) in DMEM media containing 0.0125% BSA (Sigma A8412) were plated directly into 384-well compound plates (Costar 3709) containing 0.1 μl serially diluted compound in DMSO. Following incubation for 19 h in 5% CO2 at 37° C., plates were briefly centrifuged (1000 rpm, 5 min). A 10 μl aliquot from each well was transferred to a second assay plate (Costar 3709) for Aβ40 measurements. Antibody cocktails were freshly prepared by dilution into 40 mM Tris-HCl (pH 7.4) with 0.2% BSA and added to assay plates. For Aβ42 measurements, antibodies specific for the Aβ42 neoepitope (565, developed at BMS; conjugated to the Wallac reagent (Perkin Elmer)) and the N-terminal sequence of Aβ peptide (26D6, developed at SIBIA; conjugated to APC (Perkin Elmer)) were mixed and 20 μl of the mixture was added to each well of the incubated cell plate yielding a final concentration of 0.8 ng/well 565 and 75 ng/well 26D6. For the Aβ40 measurements, antibodies specific for the Aβ40 neoepitope (TSD, developed at BMS; conjugated to the Wallac reagent (Perkin Elmer)) and 26D6 as described above were mixed and 20 μl of the mixture was added to the 10 μl aliquots which had been removed previously from the cell plate yielding a final concentration of 1.6 ng/well TSD and 17.5 ng/well 26D6. Assay plates containing antibodies were sealed with aluminum foil and incubated overnight at 4° C. Signal was determined using a Viewlux counter (Perkin Elmer) and IC50 values determined using curve fitting in CurveMaster (Excel Fit based).

The mark [1] stands for this setting: 19 h, read-out: Activity Rating (Aβ42 cellular IC50, given as a number).
Setting [2] is: 19 h, read-out: Activity Rating (based on Aβ42 cellular IC50 values).

Where two headings read alike, the source gives them in different places.

The IC50 is the concentration that gives 50% inhibition. As to `COc1cc(Nc2nc3n(n2)C[C@H](O)[C@H](O)CC3c2ccc(F)cc2)ccc1-n1cnc(Cl)c1` (relative stereo) [Example 63, rel-(6S,7R,9R)-2-(4-(4-chloro-1H-imidazol-1-yl)-3-methoxyphenylamino)-9-(4-fluorophenyl)-6,7,8,9-tetrahydro-5H-[1,2,4]triazolo azepine-6,7-diol 2,2,2-trifluoroacetate], the IC50 under setting [1] worked out at 140 nM.
In the case of `Cc1ncn(-c2ccc(Nc3nc4n(n3)CCCCC4c3ccc(OCC(F)(F)F)cc3)cc2F)n1` (stereo not shown) [Example 113, N-(3-fluoro-4-(3-methyl-1H-1,2,4-triazol-1-yl)phenyl)-9-(4-(2,2,2-trifluoroethoxy)phenyl)-6,7,8,9-tetrahydro-5H-[1,2,4]triazolo[1,5-a]azepin-2-amine], under setting [2], the IC50 was in the range of 10 to 100 nM.
For the molecule `COc1cc(Nc2nc3c(s2)CCCC3(C)c2ccccc2)ccc1-n1cnc(Cl)c1` (stereo not shown) [Example 73, N-(4-(4-chloro-1H-imidazol-1-yl)-3-methoxyphenyl)-4-methyl-4-phenyl-4,5,6,7-tetrahydrobenzo[d]thiazol-2-amine 2,2,2-trifluoroacetate], the IC50 under setting [1] turned out to be 140 nM.
For the molecule `COc1cc(Nc2nc3n(n2)CCCC[C@@H]3c2ccc(OC(F)(F)F)cc2)c(F)cc1-n1cnc(C)n1` (single isomer, unassigned) [Example 177], the half-inhibitory concentration (IC50) under setting [2] lay in the range of 10 to 100 nM.
On to “(R)—N-(3-fluoro-4-(5-methyl-1H-1,2,4-triazol-1-yl)phenyl)-9-(4-fluorophenyl)-6,7,8,9-tetrahydro-5H-[1,2,4]triazolo azepin-2-amine [Example 95]”, for which, under “read-out: Activity Rating (based on Aβ42 cellular IC50 values)”, the IC50 fell in the range of 10 to 100 nM.
With `COc1cc(Nc2nc3n(n2)CCCC[C@H]3c2ccc(F)cc2)ccc1-n1cnc(Cl)c1` (single isomer, unassigned) [Example 17], the IC50 under setting [2] was below 10 nM.
The same measure, in the same setting: the same measure for `COc1cc(Nc2nc3n(n2)CCCC[C@H]3c2ccc(OCC(F)F)cc2)ccc1-n1cnc(Cl)c1` (single isomer, unassigned) [Example 162]: 10 to 100 nM; for `COc1cc(Nc2nc3n(n2)CCCCC3c2ccc(OCC(F)(F)F)cc2)ccc1-n1cnc(Cl)c1` (stereo not shown) [Example 105, N-(4-(4-chloro-1H-imidazol-1-yl)-3-methoxyphenyl)-9-(4-(2,2,2-trifluoroethoxy)phenyl)-6,7,8,9-tetrahydro-5H-[1,2,4]triazolo[1,5-a]azepin-2-amine]: 10 to 100 nM.
The same measure, in the same setting: the result for `COc1cc(Nc2nc3c(s2)CCCC3c2ccccc2)ccc1-c1ccnc(C)c1` (stereo not shown) [Example 72, N-(3-methoxy-4-(2-methylpyridin-4-yl)phenyl)-4-phenyl-4,5,6,7-tetrahydrobenzo[d]thiazol-2-amine 2,2,2-trifluoroacetate] reads 10 to 100 nM; that for `COc1cc(Nc2nc3n(n2)CCCCC3c2ccc(OC(F)F)cc2)ccc1-n1cnc(C)n1` (stereo not shown) [Example 127, 9-(4-(difluoromethoxy)phenyl)-N-(3-methoxy-4-(3-methyl-1H-1,2,4-triazol-1-yl)phenyl)-6,7,8,9-tetrahydro-5H-[1,2,4]triazolo[1,5-a]azepin-2-amine 2,2,2-trifluoroacetate], 10 to 100 nM; that for `COc1cc(Nc2nc3n(n2)CCCCC3c2ccc(F)cc2)ccc1-n1cnc(C)n1` (stereo not shown) [Example 7, 9-(4-fluorophenyl)-N-(3-methoxy-4-(3-methyl-1H-1,2,4-triazol-1-yl)phenyl)-6,7,8,9-tetrahydro-5H-[1,2,4]triazolo[1,5-a]azepin-2-amine 2,2,2-trifluoroacetate], 10 to 100 nM.
Still for that read-out and setting: the same measure for `Cc1ncnn1-c1ccc(Nc2nc3n(n2)CCCCC3c2ccc(OCC(F)F)cc2)cc1F` (stereo not shown) [Example 119, 9-(4-(2,2-difluoroethoxy)phenyl)-N-(3-fluoro-4-(5-methyl-1H-1,2,4-triazol-1-yl)phenyl)-6,7,8,9-tetrahydro-5H-[1,2,4]triazolo[1,5-a]azepin-2-amine]: 10 to 100 nM; for `Cc1ncn(-c2ccc(Nc3nc4n(n3)CCCC[C@@H]4c3ccc(OCC(F)(F)F)cc3)cc2F)n1` (single isomer, unassigned) [Example 115]: 10 to 100 nM.
`COc1cc(Nc2nc3n(n2)CC[C@@](C)(O)C[C@@H]3c2ccc(F)cc2)ccc1-n1cnc(Cl)c1` (single isomer, unassigned) [Example 148]: the IC50 under setting [2] is below 10 nM.
Still for that read-out and setting: the result for `COc1cc(Nc2nc3n(n2)CCCCC3c2ccc(F)cc2)cc(F)c1-n1cnc(Cl)c1` (stereo not shown) [Example 49, N-(4-(4-chloro-1H-imidazol-1-yl)-3-fluoro-5-methoxyphenyl)-9-(4-fluorophenyl)-6,7,8,9-tetrahydro-5H-[1,2,4]triazolo[1,5-a]azepin-2-amine] reads below 10 nM.
Still for that read-out and setting: the result for `COc1cc(Nc2nc3n(n2)CCCC[C@@H]3c2ccc(OC(C)C)cc2)ccc1-n1cnc(Cl)c1` (single isomer, unassigned) [Example 104] reads 10 to 100 nM; that for `CCC1(O)CCn2nc(Nc3ccc(-n4cnc(Cl)c4)c(OC)c3)nc2C(c2ccc(F)cc2)C1` (stereo not shown) [Example 146, 2-(4-(4-chloro-1H-imidazol-1-yl)-3-methoxyphenylamino)-7-ethyl-9-(4-fluorophenyl)-6,7,8,9-tetrahydro-5H-[1,2,4]triazolo[1,5-a]azepin-7-ol], below 10 nM; that for `Cc1ncn(-c2ccc(Nc3nc4n(n3)CCC[C@@H]4c3ccc(OC(F)(F)F)cc3)cc2F)n1` (single isomer, unassigned) [Example 124], 10 to 100 nM.
The same measure, in the same setting: the result for `COc1cc(Nc2nc3c(s2)CC(N)CC3c2ccc(F)cc2)ccc1-n1cnc(Cl)c1` (stereo not shown) [Example 77, N2-(4-(4-chloro-1H-imidazol-1-yl)-3-methoxyphenyl)-4-(4-fluorophenyl)-4,5,6,7-tetrahydrobenzo[d]thiazole-2,6-diamine] reads 100 to 1000 nM.
Turning to `COc1cc(Nc2nc3n(n2)CCCCC3c2ccc(S(C)(=O)=O)cc2)ccc1-n1cnc(C)n1` (stereo not shown) [Example 129, N-(3-methoxy-4-(3-methyl-1H-1,2,4-triazol-1-yl)phenyl)-9-(4-(methylsulfonyl)phenyl)-6,7,8,9-tetrahydro-5H-[1,2,4]-triazolo[1,5-a]azepin-2-amine 2,2,2-trifluoroacetate], the IC50 under setting [1] came out at 1000 nM.
As to `Cc1ncn(-c2ccc(Nc3nc4n(n3)CCCC[C@@H]4c3ccc(OC(F)(F)F)cc3)cc2F)n1` (single isomer, unassigned) [Example 98], the IC50 under setting [2] lay in the range of 10 to 100 nM.
The same measure, in the same setting: the same measure for `Cc1ncnn1-c1ccc(Nc2nc3n(n2)CC[C@@](C)(O)C[C@@H]3c2ccc(F)cc2)cc1F` (relative stereo) [Example 151, rel-(7S,9R)-2-(3-fluoro-4-(5-methyl-1H-1,2,4-triazol-1-yl)phenylamino)-9-(4-fluorophenyl)-7-methyl-6,7,8,9-tetrahydro-5H-[1,2,4]triazolo[1,5-a]azepin-7-ol 2,2,2-trifluoroacetate]: 10 to 100 nM.
Same read-out and setting: the same measure for `COc1cc(Nc2nc3n(n2)CCCCC3c2ccc(F)cc2)c(F)cc1-n1cnc(C)n1` (stereo not shown) [Example 28, N-(2-fluoro-5-methoxy-4-(3-methyl-1H-1,2,4-triazol-1-yl)phenyl)-9-(4-fluorophenyl)-6,7,8,9-tetrahydro-5H-[1,2,4]triazolo[1,5-a]azepin-2-amine 2,2,2-trifluoroacetate]: 10 to 100 nM; for `CNC1CCn2nc(Nc3ccc(-n4cnc(Cl)c4)c(OC)c3)nc2C(c2ccc(F)cc2)C1` (stereo not shown) [Example 140, N2-(4-(4-chloro-1H-imidazol-1-yl)-3-methoxyphenyl)-9-(4-fluorophenyl)-N-7-methyl-6,7,8,9-tetrahydro-5H-[1,2,4]triazolo[1,5-a]azepine-2,7-diamine 2,2,2-trifluoroacetate]: 10 to 100 nM; for `COc1cc(Nc2nc3n(n2)CCCCC3c2ccc(F)cc2)ccc1-c1cc(C)no1` (stereo not shown) [Example 61, 9-(4-fluorophenyl)-N-(3-methoxy-4-(3-methylisoxazol-5-yl)phenyl)-6,7,8,9-tetrahydro-5H-[1,2,4]triazolo[1,5-a]azepin-2-amine]: 100 to 1000 nM.
With `Cc1ncn(-c2ccc(Nc3nc4n(n3)CCCCC4c3ccc(OC(F)(F)F)cc3)cc2F)n1` (stereo not shown) [Example 96, N-(3-fluoro-4-(3-methyl-1H-1,2,4-triazol-1-yl)phenyl)-9-(4-(trifluoromethoxy)phenyl)-6,7,8,9-tetrahydro-5H-[1,2,4]triazolo[1,5-a]azepin-2-amine], the IC50 under setting [2] was below 10 nM.
As to `COc1cc(Nc2nc3n(n2)CC=CCC3c2ccc(Cl)cc2Cl)ccc1-n1cnc(Cl)c1` (stereo not shown) [Example 8, (Z)—N-(4-(4-chloro-1H-imidazol-1-yl)-3-methoxyphenyl)-9-(2,4-dichlorophenyl)-8,9-dihydro-5H-[1,2,4]triazolo[1,5-a]azepin-2-amine], under setting [2], the IC50 lay in the range of 10 to 100 nM.
With `COc1cc(Nc2nc3n(n2)CCCCC3c2ccc(F)cc2)cnc1-n1cnc(Cl)c1` (stereo not shown) [Example 86, N-(6-(4-chloro-1H-imidazol-1-yl)-5-methoxypyridin-3-yl)-9-(4-fluorophenyl)-6,7,8,9-tetrahydro-5H-[1,2,4]triazolo[1,5-a]azepin-2-amine], the IC50 under setting [1] was found to be 6 nM.
